Reference: ChEMBL document CHEMBL5308504, “Tm Shift (DSF) assay results for EUbOPEN Chemogenomics Library” (2023)

Columns and labels:
[1] = target: T1, Peregrin (Homo sapiens) (UniProt P55201); conditions: Compound concentration 20.0 uM, Protein concentration 2.0 uM, Result type QC Liability
T1 sequence (whole entry): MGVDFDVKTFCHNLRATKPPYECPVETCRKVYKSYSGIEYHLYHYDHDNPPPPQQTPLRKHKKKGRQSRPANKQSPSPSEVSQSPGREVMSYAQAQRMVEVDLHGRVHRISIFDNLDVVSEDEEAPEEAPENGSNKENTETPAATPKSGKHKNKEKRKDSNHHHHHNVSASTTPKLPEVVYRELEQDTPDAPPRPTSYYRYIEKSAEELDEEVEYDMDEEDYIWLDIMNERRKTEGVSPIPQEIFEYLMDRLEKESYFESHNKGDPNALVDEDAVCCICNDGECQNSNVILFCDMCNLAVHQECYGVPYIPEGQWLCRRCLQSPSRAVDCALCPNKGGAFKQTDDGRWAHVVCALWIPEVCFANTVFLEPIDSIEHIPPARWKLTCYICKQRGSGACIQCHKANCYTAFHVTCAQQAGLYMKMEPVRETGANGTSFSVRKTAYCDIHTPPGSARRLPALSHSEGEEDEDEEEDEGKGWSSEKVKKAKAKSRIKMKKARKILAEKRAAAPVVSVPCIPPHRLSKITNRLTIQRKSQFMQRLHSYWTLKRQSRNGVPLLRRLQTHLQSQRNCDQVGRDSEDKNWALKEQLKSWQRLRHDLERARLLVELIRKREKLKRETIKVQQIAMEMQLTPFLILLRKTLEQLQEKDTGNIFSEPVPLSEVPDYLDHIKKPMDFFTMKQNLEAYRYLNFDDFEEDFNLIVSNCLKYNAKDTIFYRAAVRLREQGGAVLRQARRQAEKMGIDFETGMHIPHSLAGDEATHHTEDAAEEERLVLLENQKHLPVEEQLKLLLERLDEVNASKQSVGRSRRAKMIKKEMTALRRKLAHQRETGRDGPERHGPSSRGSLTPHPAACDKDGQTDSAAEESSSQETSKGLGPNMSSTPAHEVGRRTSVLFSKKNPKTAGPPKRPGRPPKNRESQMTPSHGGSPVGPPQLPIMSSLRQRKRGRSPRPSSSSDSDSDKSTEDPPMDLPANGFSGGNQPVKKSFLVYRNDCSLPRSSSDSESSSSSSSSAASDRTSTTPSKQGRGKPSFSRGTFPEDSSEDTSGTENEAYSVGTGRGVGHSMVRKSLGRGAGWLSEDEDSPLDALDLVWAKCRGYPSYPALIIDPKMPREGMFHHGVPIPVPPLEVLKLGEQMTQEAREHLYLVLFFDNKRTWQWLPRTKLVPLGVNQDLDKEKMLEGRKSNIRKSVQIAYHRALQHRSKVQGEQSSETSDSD

[2] = target: Fibroblast growth factor receptor 3 (Homo sapiens) (UniProt P22607); conditions: Compound concentration 20.0 uM, Protein concentration 2.0 uM, Result type QC Liability
Chain of Fibroblast growth factor receptor 3 (Homo sapiens) (P22607 23-806 limits assumed): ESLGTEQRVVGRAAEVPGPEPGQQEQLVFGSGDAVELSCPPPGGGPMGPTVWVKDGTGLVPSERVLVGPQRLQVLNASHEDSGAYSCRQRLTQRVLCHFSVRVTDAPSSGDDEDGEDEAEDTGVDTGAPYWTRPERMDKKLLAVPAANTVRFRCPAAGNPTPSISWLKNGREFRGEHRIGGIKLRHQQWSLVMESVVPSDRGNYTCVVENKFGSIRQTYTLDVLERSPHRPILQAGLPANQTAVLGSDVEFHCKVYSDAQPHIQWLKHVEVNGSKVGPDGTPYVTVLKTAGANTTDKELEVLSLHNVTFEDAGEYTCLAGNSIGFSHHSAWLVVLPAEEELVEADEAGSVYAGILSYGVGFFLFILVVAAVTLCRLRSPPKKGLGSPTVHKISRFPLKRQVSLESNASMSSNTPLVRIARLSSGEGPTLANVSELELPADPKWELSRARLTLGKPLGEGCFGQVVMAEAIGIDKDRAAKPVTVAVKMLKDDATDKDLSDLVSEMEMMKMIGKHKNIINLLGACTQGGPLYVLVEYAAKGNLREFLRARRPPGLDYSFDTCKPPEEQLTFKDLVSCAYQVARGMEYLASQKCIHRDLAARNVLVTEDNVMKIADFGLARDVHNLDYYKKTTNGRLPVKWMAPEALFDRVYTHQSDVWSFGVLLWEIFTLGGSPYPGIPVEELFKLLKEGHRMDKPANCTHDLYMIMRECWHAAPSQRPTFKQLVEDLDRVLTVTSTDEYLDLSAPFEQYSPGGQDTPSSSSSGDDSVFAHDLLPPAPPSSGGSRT
Description: Thermal Shift Assay. Domain: start/stop: P449-E759

| ΔTm [1] | ΔTm [2] | SMILES |
| --- | --- | --- |
| 0.1 °C | 0.93 °C | COc1cc(-c2cn[nH]c2)ccc1C(=O)Nc1ccc2c(c1)CCNCC2 |
| -2.19 °C | 0.81 °C | Cc1cc(OCc2nc3ccccc3s2)ccc1NC(=O)Nc1ccc(Cl)c(Cl)c1 |
| -2.93 °C | 1.95 °C | Cc1nn(-c2ccccc2)c(Nc2ccccc2C(=O)O)c1-c1cc2nccnc2c(F)c1F |
